# Experimental data as given in ChEMBL document CHEMBL4602605, “Fluoroquinolones structural and medicinal developments (2013-2018): Where are we now?” (Bioorg Med Chem, 2019).
# Columns and labels:
# [1] = system: Klebsiella pneumoniae; test: Antimicrobial activity against Klebsiella pneumoniae ATCC 29522 incubated for 16 hrs by CLSI-based agar dilution method; assay type: functional; details: ATCC 29522, 16 h
# [2] = system: Staphylococcus aureus; test: Antimicrobial activity against methicillin-resistant Staphylococcus aureus clinical isolate incubated for 16 hrs by CLSI based agar dilution method; assay type: functional
# [3] = system: Escherichia coli; test: Antimicrobial activity against Escherichia coli ATCC 700603 incubated for 16 hrs by CLSI-based agar dilution method; assay type: functional; details: ATCC 700603, 16 h
# [4] = system: Staphylococcus epidermidis; test: Antimicrobial activity against methicillin-resistant Staphylococcus epidermidis clinical isolate incubated for 16 hrs by CLSI based agar dilution method; assay type: functional
# [5] = system: Staphylococcus epidermidis; test: Antimicrobial activity against methicillin-susceptible Staphylococcus epidermidis clinical isolate incubated for 16 hrs by CLSI based agar dilution method; assay type: functional
# [6] = system: Staphylococcus aureus; test: Antimicrobial activity against methicillin-susceptible Staphylococcus aureus clinical isolate incubated for 16 hrs by CLSI based agar dilution method; assay type: functional
# [7] = system: Escherichia coli; test: Antimicrobial activity against Escherichia coli ATCC 25922 incubated for 18 to 24 hrs by disk diffusion method; assay type: functional
# [8] = system: Pseudomonas aeruginosa; test: Antimicrobial activity against Pseudomonas aeruginosa ATCC 27853 incubated for 18 to 24 hrs by disk diffusion method; assay type: functional
# [9] = system: Staphylococcus aureus; test: Antimicrobial activity against Staphylococcus aureus ATCC 25923 incubated for 18 to 24 hrs by disk diffusion method; assay type: functional
# [10] = system: Bacillus subtilis; test: Antimicrobial activity against Bacillus subtilis 10B incubated for 18 to 24 hrs by disk diffusion method; assay type: functional
# [11] = system: Escherichia coli; test: Antimicrobial activity against Escherichia coli ATCC 25922 incubated for 18 to 24 hrs; assay type: functional
# [12] = system: Staphylococcus epidermidis; test: Antimicrobial activity against methicillin-resistant Staphylococcus epidermidis 12-1 incubated for 18 to 24 hrs; assay type: functional
# [13] = system: Pseudomonas aeruginosa; test: Antimicrobial activity against Pseudomonas aeruginosa ATCC 12-12 incubated for 18 to 24 hrs; assay type: functional
# [14] = system: Staphylococcus aureus; test: Antimicrobial activity against methicillin-resistant Staphylococcus aureus ATCC 12-1 incubated for 18 to 24 hrs; assay type: functional
# [15] = system: Staphylococcus aureus; test: Antimicrobial activity against Staphylococcus aureus ATCC 25923 incubated for 18 to 24 hrs; assay type: functional
# [16] = system: Escherichia coli; test: Antimicrobial activity against Escherichia coli ATCC 8739 by agar dilution method; assay type: functional
# [17] = system: Staphylococcus aureus; test: Antimicrobial activity against Staphylococcus aureus ATCC 6538 by agar dilution method; assay type: functional
# [18] = system: Pseudomonas aeruginosa; test: Antimicrobial activity against Pseudomonas aeruginosa ATCC 9027 by agar well diffusion method; assay type: functional
# [19] = system: Aspergillus clavatus; test: Antifungal activity against Aspergillus clavatus after overnight incubation by agar well diffusion method; assay type: functional; further: test concentration or dose not given here
# [20] = system: PC-3; test: Growth inhibition of human PC3 cells by MTT assay; assay type: functional, cell-based
smiles,measurement,setting,value
O=C(O)c1cn(C2CC2)c2nc(N3CCN(CC(O)Cn4cc([N+](=O)[O-])nc4Cl)CC3)c(F)cc2c1=O (centres undefined),MIC,[1],> 32 µg/mL
same,MIC,[2],16 µg/mL
same,MIC,[3],16 µg/mL
same,MIC,[4],0.125 µg/mL
same,MIC,[5],2 µg/mL
same,MIC,[6],4 µg/mL
CCn1cc(C(=O)O)c(=O)c2cc(F)c(Nn3c(=O)cc[nH]c3=O)c(F)c21,MIC,[7],120 µg/mL
same,MIC,[8],> 500 µg/mL
same,MIC,[9],310 µg/mL
same,MIC,[10],> 500 µg/mL
CO/N=C1\CCN(c2c(F)cc3c(=O)c(C(=O)O)cn(C4CC4)c3c2OC)CC1NC(=O)[C@H](N)Cc1ccccc1 (some centres undefined),MIC,[11],16 µg/mL
same,MIC,[12],64 µg/mL
same,MIC,[13],128 µg/mL
same,MIC,[14],64 µg/mL
same,MIC,[15],0.125 µg/mL
CCn1cc(C(=O)O)c(=O)c2cc(F)c(N3CCNC(C)C3)c(Cl)c21 (centres undefined),MIC,[16],0.3 µg/mL
same,MIC,[17],1.21 µg/mL
same,MIC,[18],4.83 µg/mL
CO/N=C1\CCN(c2c(F)cc3c(=O)c(C(=O)O)cn(C4CC4)c3c2OC)CC1NC(=O)[C@H]1CCCN1 (some centres undefined),MIC,[11],4 µg/mL
same,MIC,[12],64 µg/mL
same,MIC,[13],64 µg/mL
same,MIC,[14],64 µg/mL
same,MIC,[15],0.25 µg/mL
CCn1cc(C(=O)O)c(=O)c2cc(F)c(N3CCCC(C)C3)cc21 (centres undefined),MIC,[16],1.28 µg/mL
same,MIC,[17],< 0.125 µg/mL
same,MIC,[18],1.28 µg/mL
CCn1cc(C(=O)O)c(=O)c2cc(F)c(N3CCCC(C)C3)c(Cl)c21 (centres undefined),MIC,[16],8 µg/mL
same,MIC,[17],2 µg/mL
same,MIC,[18],128 µg/mL
COc1c(N2CCCC(N(C)C[C@@H](O)Cn3cc([N+](=O)[O-])nc3C)C2)c(F)cc2c(=O)c(C(=O)O)cn(C3CC3)c12 (some centres undefined),MIC,[1],16 µg/mL
same,MIC,[2],32 µg/mL
same,MIC,[3],8 µg/mL
same,MIC,[4],0.25 µg/mL
same,MIC,[5],1 µg/mL
same,MIC,[6],1 µg/mL
CCn1cc(C(=O)O)c(=O)c2cc(F)c(N3CCN(CC(O)Cn4cc([N+](=O)[O-])nc4Cl)C(C)C3)c(F)c21 (centres undefined),MIC,[1],32 µg/mL
same,MIC,[2],32 µg/mL
same,MIC,[3],4 µg/mL
same,MIC,[4],0.125 µg/mL
same,MIC,[5],2 µg/mL
same,MIC,[6],4 µg/mL
CCn1cc(C(=O)O)c(=O)c2cc(F)c(N3CCCCC3)cc21,MIC,[16],32 µg/mL
same,MIC,[17],< 0.125 µg/mL
same,MIC,[18],1.28 µg/mL
CCn1cc(C(=O)O)c(=O)c2cc(F)c(N3CCNCC3)c(Cl)c21,MIC,[16],2 µg/mL
same,MIC,[17],4 µg/mL
same,MIC,[18],32 µg/mL
CO/N=C1\CCN(c2c(F)cc3c(=O)c(C(=O)O)cn(C4CC4)c3c2OC)CC1NC(=O)[C@H](N)CC(C)C (some centres undefined),MIC,[11],4 µg/mL
same,MIC,[12],64 µg/mL
same,MIC,[13],128 µg/mL
same,MIC,[14],64 µg/mL
same,MIC,[15],0.25 µg/mL
COc1c(N2C[C@H]3CCCN(C(O)Cn4cc([N+](=O)[O-])nc4Cl)[C@H]3C2)c(F)cc2c(=O)c(C(=O)O)cn(C3CC3)c12 (some centres undefined),MIC,[1],> 32 µg/mL
same,MIC,[2],16 µg/mL
same,MIC,[3],2 µg/mL
same,MIC,[4],0.125 µg/mL
same,MIC,[5],0.25 µg/mL
same,MIC,[6],0.5 µg/mL
COc1c(N2CCCC(N(C)CC(O)Cn3cc([N+](=O)[O-])nc3C)C2)c(F)cc2c(=O)c(C(=O)O)cn(C3CC3)c12 (centres undefined),MIC,[1],2 µg/mL
same,MIC,[2],8 µg/mL
same,MIC,[3],4 µg/mL
same,MIC,[4],0.125 µg/mL
same,MIC,[5],0.5 µg/mL
same,MIC,[6],0.5 µg/mL
CO/N=C1\CCN(c2c(F)cc3c(=O)c(C(=O)O)cn(C4CC4)c3c2OC)CC1NC(=O)[C@H](N)CO (some centres undefined),MIC,[11],16 µg/mL
same,MIC,[12],64 µg/mL
same,MIC,[13],128 µg/mL
same,MIC,[14],64 µg/mL
same,MIC,[15],1 µg/mL
CCn1cc(C(=O)O)c(=O)c2cc(F)c(N3CCCC3)cc21,MIC,[16],16 µg/mL
same,MIC,[17],0.25 µg/mL
same,MIC,[18],16 µg/mL
N[C@@H]1CCN2c3c(F)cc4c(=O)c(C(=O)O)cn(C5CC5)c4c3CCCC[C@H]12,MIC,[16],2 µg/mL
same,MIC,[17],4 µg/mL
same,MIC,[18],16 µg/mL
COc1c(N2CCN(C)CC2)c(F)cc2c(=O)c(C(=O)N/N=C\c3ccc(F)cc3)cn(C3CC3)c12,inhibition zone (IZ),[19],11 mm
COc1c(N2CCN(C(O)Cn3cc([N+](=O)[O-])nc3Cl)CC2)c(F)cc2c(=O)c(C(=O)O)cn(C3CC3)c12 (centres undefined),MIC,[1],> 32 µg/mL
same,MIC,[2],8 µg/mL
same,MIC,[3],4 µg/mL
same,MIC,[4],0.03 µg/mL
same,MIC,[5],0.25 µg/mL
same,MIC,[6],0.5 µg/mL
CCC(C)[C@H](N)C(=O)NC1CN(c2c(F)cc3c(=O)c(C(=O)O)cn(C4CC4)c3c2OC)CC/C1=N\OC (some centres undefined),MIC,[11],8 µg/mL
same,MIC,[12],64 µg/mL
same,MIC,[13],128 µg/mL
same,MIC,[14],64 µg/mL
same,MIC,[15],0.5 µg/mL
COc1c(N2CCN(C)CC2)c(F)cc2c(=O)c(C(=O)N/N=C\c3cc(Br)ccc3O)cn(C3CC3)c12,inhibition zone (IZ),[19],12 mm
same,IC50,[20],12 µg/mL
CO/N=C1\CCN(c2c(F)cc3c(=O)c(C(=O)O)cn(C4CC4)c3c2OC)CC1NC(=O)[C@@H](N)C(C)C (some centres undefined),MIC,[11],4 µg/mL
same,MIC,[12],64 µg/mL
same,MIC,[13],32 µg/mL
same,MIC,[14],64 µg/mL
same,MIC,[15],0.25 µg/mL
